Consider two molecules from ChEMBL document CHEMBL4616607, “3D proteome-wide scale screening and activity evaluation of a new ALKBH5 inhibitor in U87 glioblastoma cell line” (Bioorg Med Chem, 2020).

Assay [1] deals with NCI-H460. Put plainly: Antiinvasive activity against human H460 cells assessed as reduction in cell invasion measured after 24 hrs using Diff-quick staining by light microscopy based Boyden chamber assay. In kind it is functional.
Assay [2] concerns NCI-H460. Nature of the assay: Cytotoxicity against human H460 cells assessed as effect on cell viability at 1 to 50 uM measured after 24 hrs by MTT assay. The assay is classed as functional, cell-based. In general terms: Tetrazolium assays rely on reduction of a dye to a coloured formazan, in cell work by metabolically active cells.
For assay [3], the target named is RNA demethylase ALKBH5 (Homo sapiens) (UniProt Q6P6C2). Nature of the assay: Inhibition of ALKBH5 demethylase activity in human U87MG cells assessed as decrease in CD73 expression at 10 uM measured after 1 hr by Western blot analysis. The assay is classed as cell-based. Conditions: U-87MG ATCC. (In western blotting, separated proteins are transferred to a membrane and probed.)
Chain of RNA demethylase ALKBH5 (Homo sapiens) (Q6P6C2 2-394 limits assumed): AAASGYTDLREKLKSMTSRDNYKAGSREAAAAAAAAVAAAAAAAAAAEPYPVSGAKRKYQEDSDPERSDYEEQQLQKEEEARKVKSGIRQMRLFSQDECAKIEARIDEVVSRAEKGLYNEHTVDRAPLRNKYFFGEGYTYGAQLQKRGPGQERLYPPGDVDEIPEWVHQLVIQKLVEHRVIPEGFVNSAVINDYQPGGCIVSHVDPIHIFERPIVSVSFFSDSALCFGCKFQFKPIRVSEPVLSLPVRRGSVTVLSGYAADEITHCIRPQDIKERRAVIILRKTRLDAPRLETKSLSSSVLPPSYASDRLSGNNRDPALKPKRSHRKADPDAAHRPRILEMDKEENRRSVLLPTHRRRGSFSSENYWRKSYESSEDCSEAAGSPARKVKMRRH

Assay [4] relates to NCI-H460. Put plainly: Antimigratory activity against human H460 cells assessed as inhibition of cell migration measured after 24 hrs by scratch wound healing assay. In kind it is functional, cell-based.
The test system of assay [5] is U-87 MG. Nature of the assay: Cytotoxicity against human U87MG cells assessed as effect on cell viability at 1 to 50 uM measured after 24 hrs by SRB assay. The assay is classed as functional, cell-based. The following applies: U-87MG ATCC.
Assay [6] has as its system A549. Put plainly: Antiinvasive activity against human A549 cells assessed as reduction in cell invasion measured after 24 hrs using Diff-quick staining by light microscopy based Boyden chamber assay. The assay is classed as functional.
In assay [7] the target is RNA demethylase ALKBH5 (Homo sapiens) (UniProt Q6P6C2). Put plainly: Inhibition of human recombinant ALKBH5 demethylase activity assessed as increase in methylated 6A-RNA level at 10 to 25 uM incubated for 30 min by dot blot analysis relative to control.
Assay [8] has as its system A549. Put plainly: Cytotoxicity against human A549 cells assessed as reduction in cell viability after 24 hrs by SRB assay. In kind it is functional, cell-based. A general note: The SRB assay estimates cell density from bound dye.
In assay [9] the target is RNA demethylase ALKBH5 (Homo sapiens) (UniProt Q6P6C2). Nature of the assay: Inhibition of ALKBH5 demethylase activity in human U87MG cells assessed as decrease in CD73 expression measured after 1 to 24 hrs by Western blot analysis. The following applies: U-87MG ATCC. In kind it is cell-based.
Assay [10] shares this target. Nature of the assay: Inhibition of human recombinant ALKBH5 demethylase activity assessed as increase in methylated 6A-RNA level incubated for 30 min by dot blot analysis.
Assay [11] relates to U-87 MG. Put plainly: Antimigratory activity against human U87MG cells assessed as inhibition of cell migration measured after 6 hrs by scratch wound healing assay. The assay is classed as functional, cell-based, U-87MG ATCC.
Assay [12] deals with U-87 MG. Nature of the assay: Antiinvasive activity against human U87MG cells assessed as reduction in cell invasion measured after 24 hrs using Diff-quick staining by light microscopy based Boyden chamber assay. The assay is classed as functional, U-87MG ATCC.
Assay [13] concerns U-87 MG. Nature of the assay: Effect on CD73 mRNA expression in human U87MG cells at 10 to 25 uM measured after 1 to 6 hrs by RT-PCR analysis. Conditions: U-87MG ATCC. In kind it is functional, cell-based.
Assay [14] deals with U-87 MG. Put plainly: Cytotoxicity against human U87MG cells assessed as effect on cell viability at 1 to 50 uM measured after 24 hrs by MTT assay. In kind it is functional, cell-based. Conditions: U-87MG ATCC.
The target in assay [15] is RNA demethylase ALKBH5 (Homo sapiens) (UniProt Q6P6C2). Put plainly: Inhibition of ALKBH5 demethylase activity in human U87MG cells assessed as decrease in CD73 expression at 10 uM measured after 2 hrs by Western blot analysis. Conditions: U-87MG ATCC. In kind it is cell-based.
Assay [16] has as its system U-87 MG. Nature of the assay: Antiinvasive activity against human U87MG cells assessed as reduction in cell invasion at 25 to 50 uM measured after 24 hrs using Diff-quick staining by light microscopy based Boyden chamber assay relative to control. In kind it is functional, U-87MG ATCC. Also on record: scale not given: the % may be the effect or the level left.
The subject of assay [17] is NCI-H460. Put plainly: Cytotoxicity against human H460 cells assessed as effect on cell viability at 1 to 50 uM measured after 24 hrs by SRB assay. In kind it is functional, cell-based.
Assay [18] has as its system A549. Nature of the assay: Cytotoxicity against human A549 cells assessed as reduction in cell viability measured after 24 hrs by MTT assay. In kind it is functional, cell-based.
Assay [19] has as its system A549. Put plainly: Antimigratory activity against human A549 cells assessed as reduction in cell migration at 25 uM measured after 24 hrs by scratch wound healing assay. The assay is classed as functional, cell-based.

Calls of active or inactive are those of the source. No cut-off for these calls is given here.

With `CCCc1c(C)nc2c3ccccc3oc(=S)n12`, the Activity entry is “Dose-dependent effect” in the assay with NCI-H460 [1]; “Dose-dependent effect” in the assay on A549 [6]; “Dose-dependent effect” with A549 [8]; “Dose-dependent effect” in the assay on U-87 MG [12] (U-87MG ATCC); 90% with U-87 MG [16]; “Dose-dependent effect” in the assay with A549 [18]. The IC50 (as a rule, the concentration that gives 50% inhibition) was 17.8 µM with NCI-H460 [1] (NCI-H460, 24 h); 10.1 µM with NCI-H460 [4] (NCI-H460, 24 h); 26.2 µM in the assay with A549 [6] (A549, 24 h); 11 µM with U-87 MG [11]; 2.48 µM in the assay with U-87 MG [12]. Besides, the outcome in the assay on NCI-H460 [2], with U-87 MG [5], in the assay with U-87 MG [13], with U-87 MG [14], in the assay with NCI-H460 [17] and in the assay on A549 [19] was inactive. The inhibition entry in assay [3] and in assay [15] was “Active” in each case. Further, the inhibition result (in the assay with NCI-H460 [4]; in assay [9]; in assay [10]; in the assay with U-87 MG [11] (U-87MG ATCC)) was “Dose-dependent effect” throughout. In addition, the fold change (FC) in assay [7] was 3.

Turning to `NC1=N[C@H](O)[C@H]2[C@H]3O[C@]4(O)O[C@@H]([C@@H](O)[C@@]2(N1)[C@@H]4O)[C@]3(O)CO`, the Activity entry in the assay with NCI-H460 [1] is “Dose-dependent effect”.
